Data: publication PMC9718554, “Discovery of a fragment hit compound targeting D-Ala:D-Ala ligase of bacterial peptidoglycan biosynthesis” (Journal of Enzyme Inhibition and Medicinal Chemistry, 2022)
Read-outs that look alike come from different tables or passages of the source.

Molecular target: T1, E. coli DdlB enzyme (D-alanine:D-alanine ligase) (Escherichia coli, UniProt P07862)
T1 construct: made in house; host or cells: E. coli
Test: biochemical
Conditions: for remaining activity at 2300 µM: tested concentration 2.3 mM; for remaining activity at 2200 µM: tested concentration 2.2 mM; for remaining activity at 1900 µM: tested concentration 1.9 mM; for remaining activity at 2100 µM: tested concentration 2.1 mM; for remaining activity at 3300 µM: tested concentration 3.3 mM; for remaining activity at 2900 µM: tested concentration 2.9 mM; for remaining activity at 1700 µM: tested concentration 1.7 mM; for remaining activity at 2000 µM: tested concentration 2.0 mM; for remaining activity at 2400 µM: tested concentration 2.4 mM

[1] = residual activity of DdlB, fragment library screening, tested concentration 2.5 mM, read-out: DdlB RA
[2] = residual activity, read-out: DdlB RA
[3] = residual activity, tested concentration 1.8 mM, read-out: DdlB RA

Compound: O=C(NC1CC(=O)N(c2cccc(F)c2)C1)C1CC1 (stereo not shown) [Compound G856-7454]
- remaining activity at 2300 µM (read-out: DdlB RA): 91%

Compound: N#CC1(N2CCOCC2)CCCC1 [Compound 8019-5695]
- remaining activity at 2800 µM (residual activity of DdlB, fragment library screening, tested concentration 2.8 mM, read-out: DdlB RA): 105%

Compound: O=C(O)c1n[nH]c2ccccc12 [FLD005]
- remaining activity at 2500 µM [1]: 97%

Compound: CC1=CC(C)(C)N(C)c2cc(O)ccc21 [Compound Y021-0895]
- remaining activity at 2700 µM (tested concentration 2.7 mM, read-out: DdlB RA): 88%

Compound: OB(O)c1ccn[nH]1 [Compound 8018-7072]
- remaining activity at 4500 µM (tested concentration 4.5 mM, read-out: DdlB RA): 87%

Compound: N#CCc1nnn[nH]1 [Compound 8018-8768]
- remaining activity at 5500 µM (residual activity of DdlB, fragment library screening, tested concentration 5.5 mM, read-out: DdlB RA): 97%

Compound: Cc1nn(-c2ccccn2)c2c1C(=O)C(C#N)CC2 (stereo not shown) [Compound 8015-7286]
- remaining activity at 2200 µM (read-out: DdlB RA): 83%

Compound: O=C(O)c1cccn2c(=O)c3cc(F)ccc3nc12 [Compound C200-9599]
- remaining activity at 1900 µM [2]: 85%

Compound: CCNC(=O)N1CCC(F)(C(=O)N2CCCC2)CC1 [Compound T502-1430]
- remaining activity at 2200 µM [2]: 89%

Compound: Cc1cc(O)n(C2CCS(=O)(=O)C2)n1 (stereo not shown) [Compound Y020-9160]
- remaining activity at 2300 µM (read-out: DdlB RA): 99%

Compound: CN(C)Cc1cc2cc(O)c(-c3cccnc3)cc2n1C [Compound H027-0236C]
- remaining activity at 1600 µM (residual activity, tested concentration 1.6 mM, read-out: DdlB RA): 84%

Compound: CN(C)CC(=O)Nc1ccc(Cl)cn1 [Compound Y206-6252]
- remaining activity at 2300 µM (read-out: DdlB RA): 95%

Compound: CC(C)C(=O)Nc1ccc(Cl)cc1C(=O)O [Compound 8012-2055]
- remaining activity at 2100 µM [2]: 110%

Compound: COc1cc(O)cc(OC)c1OC [FLD027]
- remaining activity at 2500 µM [1]: 98%

Compound: CC(C)c1ccc(Nc2c(O)c(=O)c2=O)cc1 [Compound G317-0548]
- remaining activity at 2200 µM (read-out: DdlB RA): 91%

Compound: Cc1ccc(C(=N)N)cc1 [FLD025]
- remaining activity at 2500 µM [1]: 100%

Compound: O=C1CC[C@H](C(=O)O)O1 [FLD057]
- remaining activity at 2500 µM (read-out: DdlB RA): 100%

Compound: Oc1cccc(C(F)(F)F)c1 [FLD173]
- remaining activity at 2500 µM [1]: 91%

Compound: Nc1ncn[nH]1 [FLD103]
- remaining activity at 2500 µM [1]: 95%

Compound: COc1ccc(-c2ccc(C(=O)O)o2)cc1 [FLD030]
- remaining activity at 2500 µM [1]: 100%

Compound: Cc1cccnc1C(=O)N1CCC2(CC1)CCC2(C)O (stereo not shown) [Compound S971-1225]
- remaining activity at 2200 µM [2]: 97%

Compound: N#Cc1ccsc1N [FLD136]
- remaining activity at 2500 µM [1]: 100%

Compound: O=S(=O)(O)c1nnc(-c2ccccc2)o1 [Compound 8018-8658]
- remaining activity at 2200 µM (read-out: DdlB RA): 98%

Compound: c1cnc2[nH]cc(CCN3CCNCC3)c2c1 [FF01-3277]
- remaining activity at 2200 µM [2]: 62%

Compound: Cc1cc(O)n(-c2nnn[nH]2)n1 [Compound 8016-1033]
- remaining activity at 3000 µM (tested concentration 3.0 mM, read-out: DdlB RA): 80%

Compound: O=C(O)Cc1ccc(F)c(C(F)(F)F)c1 [FLD148]
- remaining activity at 2500 µM [1]: 100%

Compound: O=C(O)C1CCCCN1S(=O)(=O)c1ccc(F)cc1 (stereo not shown) [Compound C155-0476]
- remaining activity at 2100 µM [2]: 90%

Compound: COc1ccc(C(O)(C(=O)O)C(F)(F)F)cc1OC (stereo not shown) [Compound 8013-2786]
- remaining activity at 1800 µM [3]: 94%

Compound: CC(=O)NC1CCC(=O)CC1 [FLD101]
- remaining activity at 2500 µM [1]: 98%

Compound: Cc1ccc(C(=O)N(C)CC2(C)CCOCC2)cn1 [Compound P970-1095]
- remaining activity at 2300 µM [2]: 94%

Compound: N#Cc1cccnc1N [FLD196]
- remaining activity at 2500 µM [1]: 99%

Compound: CNC(=O)CN1C(=O)CSC1c1ccc(F)cc1 (stereo not shown) [Compound V022-4411]
- remaining activity at 1900 µM (read-out: DdlB RA): 92%

Compound: CCOc1ncccc1CN [Compound S055-1650]
- remaining activity at 3300 µM (residual activity of DdlB, fragment library screening, read-out: DdlB RA): 89%

Compound: CC(C)(C(=O)O)C1CCOCC1 [Compound S424-0502]
- remaining activity at 2900 µM (read-out: DdlB RA): 98%

Compound: O=C(Nc1ccccc1C(=O)O)c1ccccc1Cl [Compound 0342-0148]
- remaining activity at 1800 µM [3]: 111%

Compound: Cc1cc2n(n1)CCC(=O)N2CCCC(=O)O [FF01-0590]
- remaining activity at 2300 µM (read-out: DdlB RA): 92%

Compound: O=S(=O)(O)c1nc2ccccc2n1Cc1ccccc1 [Compound 8019-7098]
- remaining activity at 1700 µM (read-out: DdlB RA): 102%

Compound: NCc1ccccc1Cl [FLD174]
- remaining activity at 2500 µM [1]: 100%

Compound: Cc1nc2ccc(Br)cn2c1C(=O)O [Compound 8019-4469]
- remaining activity at 2000 µM [2]: 94%

Compound: COC(=O)C(O)(c1cc(C)c(N)c(C)c1)C(F)(F)F (stereo not shown) [Compound 8015-4257]
- remaining activity at 1800 µM (read-out: DdlB RA): 94%

Compound: CC1CCCCC1NS(=O)(=O)c1ccccc1 (stereo not shown) [Compound Y206-4071]
- remaining activity at 2200 µM (read-out: DdlB RA): 91%

Compound: COc1ccc(B(O)O)cc1F [Compound 1222-0120]
- remaining activity at 2900 µM (read-out: DdlB RA): 93%

Compound: O=C(O)CCc1cccnc1 [FLD141]
- remaining activity at 2500 µM [1]: 95%

Compound: CC1(C)Cc2noc(N)c2C(C)(C)N1O [Compound 8013-4059]
- remaining activity at 2200 µM (read-out: DdlB RA): 96%

Compound: CCc1ccc(C(=O)N2CCC(C3CCNC3)CC2)cc1 (stereo not shown) [Compound S632-2763]
- remaining activity at 1700 µM [2]: 69%

Compound: CCOC(=O)N1CCC(N)CC1 [FLD189]
- remaining activity at 2500 µM [1]: 98%

Compound: Cc1cccc(CS(=O)(=O)N2CCCC2)c1 [Compound Y300-2952]
- remaining activity at 2300 µM (read-out: DdlB RA): 98%

Compound: CCS(=O)(=O)Nc1c(C)cc(C)cc1C [Compound Y202-7340]
- remaining activity at 2400 µM (read-out: DdlB RA): 90%

Compound: CC(=O)NCCc1ccc(S(N)(=O)=O)cc1 [Compound 2332-0866]
- remaining activity at 2100 µM (read-out: DdlB RA): 94%

Compound: COc1ccccc1Nc1ncccc1C(=O)O [Compound 8019-5848]
- remaining activity at 2000 µM [2]: 99%

Compound: Cc1cc(Cl)nc(N)n1 [FLD046]
- remaining activity at 2500 µM [1]: 79%

Compound: O=S(=O)(O)CCN1CCN(CCO)CC1 [Compound 6105-1549]
- remaining activity at 2100 µM (read-out: DdlB RA): 99%

Compound: CCN(C(=O)c1n[nH]cc1Cl)c1ccccc1 [Compound Y501-5069]
- remaining activity at 2400 µM (read-out: DdlB RA): 95%

Compound: O=C(O)c1cccn2c(=O)c3cc(Cl)ccc3nc12 [Compound C200-9602]
- remaining activity at 1800 µM [3]: 78%

Compound: CC(C)CN1CC(O)CN(C(=O)C2CCC2)CC1=O (stereo not shown) [SA85-1056]
- remaining activity at 2200 µM [2]: 97%

Compound: O=c1c(O)c(NCCc2ccccc2)c1=O [Compound G317-0516]
- remaining activity at 2300 µM (read-out: DdlB RA): 92%

Compound: N#CC1CC(c2cccc(Cl)c2)=NO1 (stereo not shown) [Compound 8020-2797]
- remaining activity at 2900 µM (read-out: DdlB RA): 107%

Compound: O=S(=O)(O)c1ccc2[nH]nnc2c1 [Compound 8020-8129]
- remaining activity at 2500 µM (tested concentration 2.5 mM, read-out: DdlB RA): 93%

Compound: Cc1nn(Cc2c(C(=O)O)noc2C)c(C)c1C [FF01-5078]
- remaining activity at 2000 µM (read-out: DdlB RA): 81%

Compound: Cc1cc2nc(O)c(CCO)c(C)n2n1 [Compound 8011-1975]
- remaining activity at 2900 µM (read-out: DdlB RA): 95%

Compound: O=C(O)c1cnn2c(-c3cccc([N+](=O)[O-])c3)ccnc12 [Compound 13, 7–(3-Nitrophenyl)pyrazolo[1,5-a]pyrimidine-3-carboxylic acid]
- remaining activity at 500 µM (at 0.5 mM, read-out: DdlB inhibition, RA (Residual Activity)): 89%

Compound: O=C(O)c1cccnc1F [FLD134]
- remaining activity at 2500 µM [1]: 98%

Compound: Cc1cc(C)[nH]n1 [FLD130]
- remaining activity at 2500 µM [1]: 100%

Compound: Cn1c(-c2ccco2)nnc1S(=O)(=O)O [Compound 8020-6142]
- remaining activity at 2200 µM (read-out: DdlB RA): 90%

Compound: Cc1ccc(C)c(C(=O)N(C)CC2CCOC2)c1 (stereo not shown) [Compound S213-1736]
- remaining activity at 2400 µM (read-out: DdlB RA): 99%

Compound: Cn1ncc(C(=O)O)c1C(=O)NCC1CCCO1 (stereo not shown) [Compound Y504-5972]
- remaining activity at 2000 µM (read-out: DdlB RA): 96%

Compound: O=C(O)c1cc2nccc(-c3cccs3)n2n1 [Compound 18, 7-(Thiophen-2-yl)pyrazolo[1,5-a]pyrimidine-2-carboxylic acid]
- remaining activity at 1500 µM (at 1.5 mM, read-out: DdlB inhibition, RA (Residual Activity)): 87%
- remaining activity at 5000 µM (at 5 mM, read-out: DdlB inhibition, RA (Residual Activity)): 69%

Compound: CCc1ccc(B(O)O)cc1 [Compound 0054-0178]
- remaining activity at 3300 µM (read-out: DdlB RA): 104%

Compound: O=C(C1CC1)N1CC(c2n[nH]c(C3CC3)n2)C2(CCC2)C1 (stereo not shown) [SC70-0192]
- remaining activity at 1700 µM [2]: 95%

Compound: Cn1c(C(=O)O)cc2ccccc21 [FLD198]
- remaining activity at 2500 µM [1]: 79%

Compound: CC1=NCCC1 [FLD186]
- remaining activity at 2500 µM [1]: 71%

Compound: CC1CN(S(=O)(=O)c2ccc(F)c(F)c2)CC(C)O1 (stereo not shown) [Compound Y202-8173]
- remaining activity at 2100 µM [2]: 95%
